The values below come from PubChem BioAssay AID270 (DTP/NCI, 2004).

Structures are written as SMILES. Where “and” joins values, the source holds several entries; their conditions need not be identical. Identical values can stand only once. Results filed as inconclusive are left out. *1 amine or outer side, *2 acyl side, *3 side chain or, on linkers, in order; H or OH if unused. Where a SMILES comes first, the peptide text is derived from it. Bridges are numbered along the chain shown (N, C = ends). Roman numbers before positions name the chains, in order. [ ]: non-standard residue; d: D form. Actinocin(1to9) = Cc1c2oc3c(C)ccc(C(=O)[*:2])c3nc-2c(C(=O)[*:1])c(N)c1=O; X1 = O=C1CC(C(=O)[*:2])N([*:1])C1; NMeV = CN[CH](C(=O)O)C(C)C; Sar = CNCC(=O)O

The assay has as its system BDF1 mice, s.c. Lewis lung carcinoma, T/C %. Kind of assay: NCI In Vivo Anticancer Drug Screen. Data for tumor model Lewis Lung Carcinoma (subcutaneous) in B6D2F1 (BDF1) mice. An outline of the steps: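 First, mice carry a transplantable tumor. Next, groups receive either compound or vehicle. Finally, survival or tumor dimensions in the dosed animals are divided by the corresponding control figure.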

[1] abbreviates: endpoint: median survival time, dose: 50.0 mg/kg/injection, schedule: Q01DX009 (ip), vehicle: saline, higher = longer survival.
Where [2] appears, read: endpoint: median survival time, dose: 100.0 mg/kg/injection, schedule: Q01DX009 (ip), vehicle: saline, higher = longer survival.

For `COC(=O)C1CCC(NC(=O)N(CCCl)N=O)CC1` (centres undefined), the T/C by setting is: (endpoint: median survival time, dose: 14.0 mg/kg/injection, schedule: Q01DX001 (ip), vehicle: saline with Tween-80, higher = longer survival) 206 % of control; (endpoint: median survival time, dose: 21.0 mg/kg/injection, schedule: Q01DX001 (ip), vehicle: saline with Tween-80, higher = longer survival) 223 % of control; (endpoint: median survival time, dose: 23.0 mg/kg/injection, schedule: Q01DX001 (ip), vehicle: saline with Tween-80, higher = longer survival) 180 % of control; (endpoint: median survival time, dose: 24.0 mg/kg/injection, schedule: Q01DX001 (ip), vehicle: saline with Tween-80, higher = longer survival) 152 % of control; (endpoint: median survival time, dose: 32.0 mg/kg/injection, schedule: Q01DX001 (ip), vehicle: saline with Tween-80, higher = longer survival) 188 % of control; (endpoint: median survival time, dose: 36.0 mg/kg/injection, schedule: Q01DX001 (ip), vehicle: saline with Tween-80, higher = longer survival) 219 % of control. Moreover, the T/C by setting is: (endpoint: median survival time, dose: 54.0 mg/kg/injection, schedule: Q01DX001 (ip), vehicle: saline with Tween-80, higher = longer survival) 198 % of control; (endpoint: median survival time, dose: 81.0 mg/kg/injection, schedule: Q01DX001 (ip), vehicle: saline with Tween-80, higher = longer survival) 94 % of control.

For `CCCCOP(=S)(N1CC1)N1CC1`, the T/C runs as follows: (endpoint: mean tumor weight, dose: 2.5 mg/kg/injection, schedule: Q01DX011 (ip), vehicle: saline, higher = larger tumour) 79 % of control; (endpoint: mean tumor weight, dose: 5.0 mg/kg/injection, schedule: Q01DX011 (ip), vehicle: saline, higher = larger tumour) 52 % of control; (endpoint: mean tumor weight, dose: 10.0 mg/kg/injection, schedule: Q01DX011 (ip), vehicle: saline, higher = larger tumour) 23 % of control.

For the compound `CC1(C)C(CC(=O)O)CC1C(=O)O` (centres undefined), the T/C (endpoint: mean tumor weight, dose: 166.0 mg/kg/injection, schedule: Q01DX011 (ip), vehicle: other, higher = larger tumour) was 78 % of control.

On to `CC(C)([NH-])CO.CC(C)([NH-])CO.[Cl][Cd][Cl]`, for which the T/C is 122 % of control (endpoint: mean tumor weight, dose: 1.0 mg/kg/injection, schedule: Q01DX011 (ip), vehicle: other, higher = larger tumour); 77 % of control (endpoint: mean tumor weight, dose: 2.0 mg/kg/injection, schedule: Q01DX011 (ip), vehicle: other, higher = larger tumour); 75 % of control (endpoint: mean tumor weight, dose: 4.0 mg/kg/injection, schedule: Q01DX011 (ip), vehicle: other, higher = larger tumour); 97 % of control (endpoint: mean tumor weight, dose: 8.0 mg/kg/injection, schedule: Q01DX011 (ip), vehicle: other, higher = larger tumour).

As to `CCCC1CCC(=C2C(=O)CCC2=O)O1` (centres undefined), the T/C is, setting by setting: (endpoint: median survival time, dose: 3.13 mg/kg/injection, schedule: Q01DX009 (ip), vehicle: saline, higher = longer survival) 102 % of control; (endpoint: median survival time, dose: 6.25 mg/kg/injection, schedule: Q01DX009 (ip), vehicle: saline, higher = longer survival) 111 % of control; (endpoint: median survival time, dose: 12.5 mg/kg/injection, schedule: Q01DX009 (ip), vehicle: saline, higher = longer survival) 105 % of control; (endpoint: median survival time, dose: 25.0 mg/kg/injection, schedule: Q01DX009 (ip), vehicle: saline, higher = longer survival) 101 % of control.

Consider `S=c1c2[nH]cnc2ncn1CCSC1=NC=NC2=NC=NC21` (centres undefined), for which the T/C is 96 % of control (endpoint: mean tumor weight, dose: 50.0 mg/kg/injection, schedule: Q01DX011 (ip), vehicle: other, higher = larger tumour); 53 % of control (endpoint: mean tumor weight, dose: 100.0 mg/kg/injection, schedule: Q01DX011 (ip), vehicle: other, higher = larger tumour); 61 % of control (endpoint: mean tumor weight, dose: 200.0 mg/kg/injection, schedule: Q01DX011 (ip), vehicle: other, higher = larger tumour); 37 % of control (endpoint: mean tumor weight, dose: 400.0 mg/kg/injection, schedule: Q01DX011 (ip), vehicle: other, higher = larger tumour).

With `CN(C)CC/C=C1\c2ccccc2Sc2ccc(Cl)cc21`, the T/C by setting is: (endpoint: median survival time, dose: 1.87 mg/kg/injection, schedule: Q01DX001 (ip), vehicle: Klucel (hydroxypropylcellulose) (HPC), higher = longer survival) 102 % of control; (endpoint: median survival time, dose: 3.75 mg/kg/injection, schedule: Q01DX001 (ip), vehicle: Klucel (hydroxypropylcellulose) (HPC), higher = longer survival) 109 % of control; (endpoint: median survival time, dose: 7.5 mg/kg/injection, schedule: Q01DX001 (ip), vehicle: Klucel (hydroxypropylcellulose) (HPC), higher = longer survival) 88 % of control; (endpoint: median survival time, dose: 15.0 mg/kg/injection, schedule: Q01DX001 (ip), vehicle: Klucel (hydroxypropylcellulose) (HPC), higher = longer survival) 102 % of control.

For the compound `[O-][n+]1c(CCl)nc2cccc3c2c1-c1ccccc1-3`, the T/C (endpoint: median survival time, dose: 25.0 mg/kg/injection, schedule: Q01DX009 (ip), vehicle: saline with Tween-80, higher = longer survival) was 106 % of control and 111 % of control; the T/C (endpoint: median survival time, dose: 50.0 mg/kg/injection, schedule: Q01DX009 (ip), vehicle: saline with Tween-80, higher = longer survival) was 112 % of control and 118 % of control; the T/C (endpoint: median survival time, dose: 100.0 mg/kg/injection, schedule: Q01DX009 (ip), vehicle: saline with Tween-80, higher = longer survival) was 94 % of control.

Consider `Cc1c2oc3c(C)ccc(C(=O)NC4C(=O)NC(C(C)C)C(=O)N5CCCC5C(=O)N(C)CC(=O)N(C)C(C(C)C)C(=O)OC4C)c3nc-2c(C(=O)NC2C(=O)NC(C(C)C)C(=O)N3CC(=O)CC3C(=O)N(C)CC(=O)N(C)C(C(C)C)C(=O)OC2C)c(N)c1=O` (centres undefined) (I: TV[X1][Sar][NMeV] / II: TVP[Sar][NMeV]; ester I:1-I:C, II:1-II:C; linker I:N-II:N via Actinocin(1to9); configuration not given here), for which the T/C runs as follows: (endpoint: median survival time, dose: 3.1 micrograms/kg/injection, schedule: Q01DX009 (ip), vehicle: water, higher = longer survival) 112 % of control; (endpoint: median survival time, dose: 6.2 micrograms/kg/injection, schedule: Q01DX009 (ip), vehicle: water, higher = longer survival) 111 % of control; (endpoint: median survival time, dose: 9.4 micrograms/kg/injection, schedule: Q04DX003 (ip), vehicle: water, higher = longer survival) 108 % of control; (endpoint: median survival time, dose: 12.5 micrograms/kg/injection, schedule: Q01DX009 (ip), vehicle: water, higher = longer survival) 87 % of control; (endpoint: median survival time, dose: 18.8 micrograms/kg/injection, schedule: Q04DX003 (ip), vehicle: water, higher = longer survival) 109 % of control; (endpoint: median survival time, dose: 37.5 micrograms/kg/injection, schedule: Q04DX003 (ip), vehicle: water, higher = longer survival) 108 % of control.

Take `O=[N+]([O-])c1ccc2c(N=Nc3c(O)ccc4ccccc34)c(O)cc(S(=O)(=O)O)c2c1`: the T/C (endpoint: mean tumor weight, dose: 180.0 mg/kg/injection, schedule: Q01DX011 (ip), vehicle: saline, higher = larger tumour) is 59 % of control; the T/C (endpoint: mean tumor weight, dose: 265.0 mg/kg/injection, schedule: Q01DX011 (ip), vehicle: saline, higher = larger tumour) is 50 % of control; the T/C under setting [1] is 111 % of control; the T/C under setting [2] is 98 % of control; the T/C (endpoint: median survival time, dose: 200.0 mg/kg/injection, schedule: Q01DX009 (ip), vehicle: saline, higher = longer survival) is 95 % of control.

For the compound `O=C(O)C(O)C(O)C1[O][Sb][O]C1CO` (centres undefined), the T/C reads like this: under setting [1], 104 % of control; under setting [2], 102 % of control.

Consider `COc1ccc(CC2C(=O)NC(C)C(=O)N(C)C3C(=O)N(C)C(Cc4ccc(O)c(c4)Oc4ccc(cc4)C3O)C(=O)NC(C)C(=O)NC(C)C(=O)N2C)cc1` (centres undefined), for which the T/C (endpoint: median survival time, dose: 0.25 mg/kg/injection, schedule: Q01DX009 (ip), vehicle: saline, higher = longer survival) is 96 % of control; the T/C (endpoint: median survival time, dose: 0.5 mg/kg/injection, schedule: Q01DX009 (ip), vehicle: saline, higher = longer survival) is 97 % of control; the T/C (endpoint: median survival time, dose: 1.0 mg/kg/injection, schedule: Q01DX009 (ip), vehicle: saline, higher = longer survival) was 113 % of control; the T/C (endpoint: median survival time, dose: 2.0 mg/kg/injection, schedule: Q01DX009 (ip), vehicle: saline, higher = longer survival) is 87 % of control.

For the compound `CN(C)CC(C(=O)c1ccc(Br)cc1)C(Br)c1ccccc1` (centres undefined), the T/C (endpoint: median survival time, dose: 5.0 mg/kg/injection, schedule: Q01DX009 (ip), vehicle: saline, higher = longer survival) is 107 % of control; the T/C (endpoint: median survival time, dose: 10.0 mg/kg/injection, schedule: Q01DX009 (ip), vehicle: saline, higher = longer survival) was 100 % of control; the T/C (endpoint: median survival time, dose: 40.0 mg/kg/injection, schedule: Q01DX009 (ip), vehicle: saline, higher = longer survival) was 119 % of control.

For `CO/[N+]([O-])=C\C(=O)N/C=C/C(=O)O`, the T/C is 80 % of control (endpoint: mean tumor weight, dose: 22.0 mg/kg/injection, schedule: Q01DX011 (ip), vehicle: carboxymethylcellulose (CMC), higher = larger tumour) and 57 % of control (endpoint: mean tumor weight, dose: 33.0 mg/kg/injection, schedule: Q01DX011 (ip), vehicle: carboxymethylcellulose (CMC), higher = larger tumour).

With `O=NN(CCCl)C(=O)N[C@H]1CCCC[C@@H]1Cl`, the T/C by setting is: (endpoint: median survival time, dose: 9.0 mg/kg/injection, schedule: Q01DX001 (ip), vehicle: Klucel (hydroxypropylcellulose) (HPC), higher = longer survival) 112 % of control; (endpoint: median survival time, dose: 11.0 mg/kg/injection, schedule: Q01DX001 (ip), vehicle: gum acacia, higher = longer survival) 114 % of control; (endpoint: median survival time, dose: 17.0 mg/kg/injection, schedule: Q01DX001 (ip), vehicle: gum acacia, higher = longer survival) 107 % of control; (endpoint: median survival time, dose: 18.0 mg/kg/injection, schedule: Q01DX001 (ip), vehicle: Klucel (hydroxypropylcellulose) (HPC), higher = longer survival) 124 % of control; (endpoint: median survival time, dose: 25.0 mg/kg/injection, schedule: Q01DX001 (ip), vehicle: gum acacia, higher = longer survival) 95 % of control; (endpoint: median survival time, dose: 25.0 mg/kg/injection, schedule: Q04DX004 (ip), vehicle: gum acacia, higher = longer survival) 172 % of control. Moreover, the T/C (endpoint: median survival time, dose: 45.0 mg/kg/injection, schedule: Q07DX002 (ip), vehicle: gum acacia, higher = longer survival) was 159 % of control; the T/C (endpoint: median survival time, dose: 72.0 mg/kg/injection, schedule: Q01DX001 (ip), vehicle: Klucel (hydroxypropylcellulose) (HPC), higher = longer survival) was 122 % of control; the T/C (endpoint: median tumor weight (est.), dose: 18.0 mg/kg/injection, schedule: Q01DX001 (ip), vehicle: gum acacia, higher = larger tumour) was 68 % of control; the T/C (endpoint: median tumor weight (est.), dose: 37.0 mg/kg/injection, schedule: Q01DX001 (ip), vehicle: gum acacia, higher = larger tumour) was 23 % of control; the T/C (endpoint: median tumor weight (est.), dose: 55.0 mg/kg/injection, schedule: Q01DX001 (ip), vehicle: gum acacia, higher = larger tumour) is 7 % of control.
